Here are results for 6 compounds from US9505726B2, “Substituted biphenyl amides as P2X3 and P2X2/3 antagonists” (Roche Palo Alto LLC, priority 2009, dated 2016).

The structures appear in SMILES notation.

This test has as its target T1, rat P2X3 receptor (Rattus norvegicus, UniProt P49654).
T1 construct: expressed in transfected cells; host or cells: CHO-K1
T1 sequence (P49654 1-397): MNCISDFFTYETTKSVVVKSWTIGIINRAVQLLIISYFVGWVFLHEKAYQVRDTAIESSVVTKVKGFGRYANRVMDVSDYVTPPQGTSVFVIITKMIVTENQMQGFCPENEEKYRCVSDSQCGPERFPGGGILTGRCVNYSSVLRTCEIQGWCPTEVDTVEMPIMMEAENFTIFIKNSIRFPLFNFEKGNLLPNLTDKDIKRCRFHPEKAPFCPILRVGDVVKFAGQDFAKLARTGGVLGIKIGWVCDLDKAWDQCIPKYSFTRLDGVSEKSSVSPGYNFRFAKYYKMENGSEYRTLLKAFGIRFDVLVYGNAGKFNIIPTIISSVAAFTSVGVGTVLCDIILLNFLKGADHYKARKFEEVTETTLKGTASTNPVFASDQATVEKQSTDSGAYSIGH
The test can be described thus: P2X3 FLIPR (Fluorometric Imaging Plate Reader) assay. The settings on record: CHO-K1 cells transfected with cloned rat P2X3; agonist α,β-meATP 1 μM; Fluo-3 AM calcium fluorescence. It is filed as cell-based. The essentials: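 CHO-K1 cells expressing rat P2X3 or human P2X2/3 were Fluo-3-loaded and preincubated with compound for 20 min at room temperature. Calcium responses to α,β-meATP at 1 μM (P2X3) or 5 μM (P2X2/3) were read on FLIPR as peak fluorescence. Inhibition curves were fitted by nonlinear regression.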

With `COC[C@@H](C)NC(=O)c1cc(-c2ccc(F)cc2F)cc(N(C)C(=O)C(C)C)c1` [Compound 65, 2′,4′-Difluoro-5-(isobutyryl-methyl-amino)-biphenyl-3-carboxylic acid ((R)-2-methoxy-1-methyl-ethyl)-amide], the “P2X3 (pIC50 values for the P2X3 receptor)” value was 5.38.

For `CC(C)C(=O)N(C)c1cc(C(=O)NC(C)c2cnccn2)cc(-c2ccc(F)cc2F)c1` (stereo not drawn) [Compound 66, 2′,4′-Difluoro-5-(isobutyryl-methyl-amino)-biphenyl-3-carboxylic acid (1-pyrazin-2-yl-ethyl)-amide], the “P2X3 (pIC50 values for the P2X3 receptor)” value worked out at 6.63.

For the compound `CC(C)C(=O)N(C)c1cc(C(=O)NC(C)c2cnccn2)cc(-c2ccc(Cl)cn2)c1` (stereo not drawn) [Compound 67, 3-(5-Chloro-pyridin-2-yl)-5-(isobutyryl-methyl-amino)-N-(1-pyrazin-2-yl-ethyl)-benzamide], the “P2X3 (pIC50 values for the P2X3 receptor)” value worked out at 7.75.

As to `CC(C)C(=O)N(C)c1cc(C(=O)N[C@@H](C)CO)cc(-c2ccc(Cl)cn2)c1` [Compound 69, 3-(5-Chloro-pyridin-2-yl)-N-((S)-2-hydroxy-1-methyl-ethyl)-5-(isobutyryl-methyl-amino)-benzamide], the “P2X3 (pIC50 values for the P2X3 receptor)” value was 6.86.

As to `Cc1ccc(-c2cc(C(=O)NC(C)c3cnccn3)cc(N(C)C(=O)C(C)C)c2)nc1` (stereo not drawn) [Compound 70, 3-(Isobutyryl-methyl-amino)-5-(5-methyl-pyridin-2-yl)-N-(1-pyrazin-2-yl-ethyl)-benzamide], the “P2X3 (pIC50 values for the P2X3 receptor)” value turned out to be 8.11.

Regarding `Cc1ccc(-c2cc(C(=O)N[C@@H](C)CO)cc(N(C)C(=O)C(C)C)c2)nc1` [Compound 72, N-((S)-2-Hydroxy-1-methyl-ethyl)-3-(isobutyryl-methyl-amino)-5-(5-methyl-pyridin-2-yl)-benzamide], the “P2X3 (pIC50 values for the P2X3 receptor)” value is recorded as 7.58.
